# From patent EP0519427A2, “N-substituted-3-iodopropiolamide, production and use thereof” (priority 1991, dated 1992)
# How the values were obtained:
# [1] = test system: Aspergillus niger van Tieghem IFO 6341; assay: Fungicide activity for wood fungicide (rating of fungi growth on treated wood); format: cell-based; conditions: beech specimens dipped 3 min in fungicide solution, 4 weeks culture; rating 0 (no growth) to 3; mean of 6 specimens
# Method: (§1) This test was conducted according to Specification No.2 of Japan Wood Preserving Association, enacted in 1979 and titled "Test methods of fungicide activity for wood fungicide".
# (§2) • ① Aspergillus niger van Tieghem IFO 6341 = ATCC 6275 • ② Penicillium funiculosum Thom (formerly : Penicillium luteum Zukal) IFO 6345 = ATCC 9644 • ③ Rhizopus javanicus Takeda (formerly : Rhizopus nigricans Ehrenberg S.N. 32) IFO 6354 • ④ Aureobasidium pullulans (de Bary) Arnaud IFO 6353 = IAM (H. Iizuka, F-24) • ⑤ Gliocladium virens Miller, Gidden & Fosteb IFO 6355 = ATCC 9645 (formerly : Trichoderma viride, T.I.)
# (§3) The fungi ① , ② , ③ and ⑤ are classified as fungi imperfecti, and the fungus ④ as blue stain fungus.
# (§4) The Culture medium comprised the potato-sap agar culture medium (specified in the Japan Industrial Standard (JIS) Z 2911- 1960) of 50 ml, put in the conical flask of 100 ml, sterilized by steam at 1.4-1.6 kgf/cm² .G (137.2-156.8 KPa) for 30 minutes.
# (§5) The fungi to be used were inoculated into the culture medium specified in the previous section and were cultured at 26 ± 2 °C under the relative humidity of 70-80 % for two weeks.
# (§6) The potato sap of 50 ml, sterilized, cooled to room temperature and to which dioctyl sodium sulfosuccinate, a wetting agent, was added so as to become 0.005 %, was dropped to the fully breeding fungi layer, and was agitated with a platinum spatula in such a way that the spore was torn off. The resulting liquid filtered by sterilized gauze was the spore suspension.
# (§7) 3-5-1 A Petri dish measured 90-100 mm in diameter and 20 mm in height.
# (§8) 3-5-2 Agar liquid (which has no nutrients) of 2 % sterilized by steam was dropped onto the Petri dish sterilized by dry heat, and then was solidified.
# (§9) 3-5-3 Three mm diameter sterilized glass bars or plastic nets made of polypropylene, etc. were placed to prevent the test specimens from touching with agar directly.
# (§10) 3-6-1 The type of trees for wood specimens was beech. The cross section was of grain face, and the dimension was 20 mm wide 3 mm thick and 50 mm long.
# (§11) 3-6-2 Wood specimens were supplied with nutrients in such a way that they were dipped into the potato-sap (the one in the section 3-2, but agar was not added) for 3 minutes.
# (§12) 3-6-3 Nutrient-supplied wood specimens, after drying at 60 °C, were used for testing immediately. They were temporarily stored at 0 °C, but they were served to tests as soon as possible.
# (§13) The test specimens were of two types, treated and untreated speciments. The treated specimens referred to the one treated with fungicide. The untreated specimens were of two types, the one really untreated and the other treated with solvent only.
# (§14) 3-7-2-1 Nutrients-supplied wood specimens were dried at 60 ± 2 °C, and then their weights (W₀) were measured. Test specimens of 10-20 pieces were piled up in a one liter beaker in such a way that two specimens constant space apart from each other were alternately put on the other two specimens also constant space apart from each other. On the top of the two specimens, a weight was placed. Through the test specimens thus arranged, the fungicide solution was introduced. The level of the fungicide solution was one centimeter above the top specimens. The test specimens were dipped for three minutes after the fungicide solution introduction.
# (§15) After finishing dipping, the test specimens were wiped softly, and then the weights (W₁) were measured immediately. As control experiment, the same procedure as the above was done using solvent without fungicide.
# (§16) 3-7-2-2 The amounts of solution pick-up and fungicide pick-up were calculated with the following equations: The amount of solution absorption: RL = W₁ - W₀ [formula] The amount of fungicide absorption: Rc = RL × fungicide concentration [formula] 3-7-2-3 Wood specimens treated were placed without contacting each other, then were air-dried for two days, and then served as the treated test specimens. […]
# [2] = test system: Aureobasidium pullulans (de Bary) Arnaud IFO 6353; assay: as above; format: cell-based; conditions: beech specimens dipped 3 min in fungicide solution, 4 weeks culture; rating 0 (no growth) to 3; mean of 6 specimens
# Method: as §1, §2, §3, §4, §5, §6, §7, §8, §9, §10, §11, §12, §13, §14, §15, §16
# [3] = test system: Gliocladium virens Miller, Gidden & Fosteb IFO 6355; assay: as above; format: cell-based; conditions: beech specimens dipped 3 min in fungicide solution, 4 weeks culture; rating 0 (no growth) to 3; mean of 6 specimens
# Method: as §1, §2, §3, §4, §5, §6, §7, §8, §9, §10, §11, §12, §13, §14, §15, §16
# [4] = test system: Penicillium funiculosum Thom IFO 6345; assay: as above; format: cell-based; conditions: beech specimens dipped 3 min in fungicide solution, 4 weeks culture; rating 0 (no growth) to 3; mean of 6 specimens
# Method: as §1, §2, §3, §4, §5, §6, §7, §8, §9, §10, §11, §12, §13, §14, §15, §16
# [5] = test system: Rhizopus javanicus Takeda IFO 6354; assay: as above; format: cell-based; conditions: beech specimens dipped 3 min in fungicide solution, 4 weeks culture; rating 0 (no growth) to 3; mean of 6 specimens
# Method: as §1, §2, §3, §4, §5, §6, §7, §8, §9, §10, §11, §12, §13, §14, §15, §16
# [6] = test system: Aspergillus Niger (IFO 6341), Penicillium funiculosum (IFO 6345), Rhizopus javanicus (IFO 6354), Aureobasidium pullulans (IFO 6353), Gliocladium virens (IFO …); assay: Fungicide activity for wood fungicide, sum of average ratings and damage value over the five fungi; format: cell-based; conditions: for damage value: D = S₁ / S₀ × 100, untreated 100.0, lower = higher fungicide activity; for Sum (of average rating values A₁ to A₅): S = A₁ + A₂ + A₃ + A₄ + A₅, untreated 15.0; for wood fungicide activity (statement in words): summary of Table 3
# Method: as §1, §2, §3, §4, §5, §6, §7, §8, §9, §10, §11, §12, §13, §14, §15, §16
# [7] = test system: Coptofermes formosanus SHIRAKI; assay: Anti-termite activity, contact toxicity on treated quartz sand; format: in vivo
# Method: This test was conducted on the basis of the method described in Specification No.11 of Japan Wood Preserving Association, enacted in 1981 and titled "The test methods of anti-termite activity for anti-termite agent used in the coating, spraying and dipping treatment, (1) Laboratory test methods".
# The termite to be used was Coptofermes formosanus SHIRAKI ("ieshiroari").
# 4-2-1 The treated quartz sand was prepared as follows : The quartz sand, which passed through a sieve with 60 mesh screen, of 3 g was mixed with the BACTRO-AGAR solution of 1 ml with good agitation. Then, water content was adjusted to 5 %.
# 4-2-2 The test quartz sand was prepared as follows : The anti-termite agent solution of intended concentration (ppm) was added to the above treated quartz sand, then was mixed, and then was allowed to stand for 14 days to vaporize solvents.
# 4-2-3 The test quartz sand of 4 g were put into a Petri dish (6 cm in diameter) sterilized with dry heat.
# 4-2-4 Ten termite workers were randomly sampled from their nest, and then put on the quartz sand.
# 4-2-5 Each Petri dish was placed in a vessel containing water in the bottom, and then the vessel was allowed to stand in the constant temperature room at 28 ± 2 °C for 14 days. The number of the dead termites was observed and recorded. The first day : every 2 hours for 8 hours. After the second day : every 24 hour.
# 4-2-6 Test was repeated three times for each concentration of anti-termite agent solution.
# 4-3-1 Each time when observing, the number of healthy termites and dead termites were recorded.
# 4-3-2 The results are shown below in Table 4. […]
# [8] = concentration 100 ppm, term of contact 1 day
# [9] = concentration 100 ppm, term of contact 2 days
# [10] = concentration 100 ppm, term of contact 3 days
# [11] = concentration 100 ppm, term of contact 5 days
# [12] = concentration 1000 ppm, term of contact 1 day
# [13] = concentration 1000 ppm, term of contact 2 days
# [14] = concentration 1000 ppm, term of contact 3 days
# [15] = concentration 1000 ppm, term of contact 5 days
Compound,"Average rating value, A₁ : Aspergillus Niger (IFO 6341) [1]","Average rating value, A₄ : Aureobasidium pullulans (IFO 6353) [2]","Average rating value, A₅ : Gliocladium virens (IFO 6355) [3]","Average rating value, A₂ : Penicillium funiculosum (IFO 6345) [4]","Average rating value, A₃ : Rhizopus javanicus (IFO 6354) [5]",damage value [6],Sum (of average rating values A₁ to A₅) [6],wood fungicide activity (statement in words) [6],"Death rate (%) [7, 8]","Death rate (%) [7, 9]","Death rate (%) [7, 10]","Death rate (%) [7, 11]","Death rate (%) [7, 12]","Death rate (%) [7, 13]","Death rate (%) [7, 14]","Death rate (%) [7, 15]"
"CC(C)(C)NC(=O)C#CI [Example 1, N-(tert-Butyl)-3-iodopropiolamide]",0.0,0.0,0.0,0.0,2.0,13.3,2.0,excellent wood fungicide activity,0%,0%,30%,100%,0%,50%,100%,100%
"CCCCCCCCCCNC(=O)C#CI [Example 2, N-(n-Decyl)-3-iodopropiolamide]",3.0,0.0,1.3,2.0,3.0,62.2,9.3,,,,,,,,,
"CCCCNC(=O)C#CI [Example 4, N-(n-Butyl)-3-iodopropiolamide]",0.0,0.0,1.0,0.0,0.0,6.7,1.0,excellent wood fungicide activity,0%,0%,30%,100%,0%,30%,100%,100%
"CCC(C)NC(=O)C#CI (centres unmarked) [Example 5, N-(sec-Butyl)-3-iodopropiolamide]",0.0,0.0,1.3,0.0,3.0,28.9,4.3,excellent wood fungicide activity,,,,,,,,
"CC(C)CNC(=O)C#CI [Example 6, N-Isobutyl-3-iodopropiolamide]",0.0,0.0,0.0,0.0,3.0,20.2,3.0,excellent wood fungicide activity,,,,,,,,
"CCCCCNC(=O)C#CI [Example 7, N-(n-Pentyl)-3-iodopropiolamide]",0.2,0.0,1.8,0.2,3.0,34.4,5.2,,,,,,,,,
"CCCCCCCNC(=O)C#CI [Example 9, N-(n-Heptyl)-3-iodopropiolamide]",1.7,0.3,1.5,1.0,3.0,50.0,7.5,,,,,,,,,
"CCCCCCCCNC(=O)C#CI [Example 10, N-(n-Octyl)-3-iodopropiolamide]",2.7,0.0,2.2,0.3,3.0,54.4,8.2,,,,,,,,,
"CCCCCCCCCNC(=O)C#CI [Example 11, N-(n-Nonyl)-3-iodopropiolamide]",3.0,1.7,2.8,1.8,3.0,82.2,12.3,,,,,,,,,
